Here are results for six compounds from PubChem BioAssay AID1963829 (Molecular Pharmacology Branch, DTP, NCI, 2024).

In the experiment the test system is 935938-334-R-J1-PDC complex spheroid viability. As to the kind of experiment: Anticancer human tumor 935938-334-R-J1-PDC patient-derived small intestine adenocarcinoma cell line growth inhibition [POLQ]. The settings on record: for viability, T/C: stronger effect = lower value. Here is the method:
Multicellular complex tumor spheroid response to Polymerase (POL) inhibitors (novobiocin, ART-558, RP6685) in combination with a variety of drugs and investigational agents in selected tumor cell lines
The POL inhibitors (novobiocin, ART-558, and RP6685) were evaluated both individually and in combination with standard of care and investigational anticancer small molecules within a complex spheroid model of solid tumors. . Complex spheroids include a stromal component modeled by human endothelial cells (HUVEC) and fibroblasts modeled by human mesenchymal stem cells (MSCs). The concentration ranges selected for each drug and investigational agent were based upon clinically achievable concentrations if the clinical Cmax of the agent was known.
Compounds. The drugs and investigational agents: novobiocin (NSC847541), ART-558 (NSC835418), RP-6685 (NSC848927), peposertib (NSC802822), ceralasertib (NSC780249), elimusertib (NSC800525), camonsertib (NSC841442), AZD-1390 (NSC803789), olaparib (NSC753686), talazoparib (NSC767125), rucaparib (NSC756644), sotorasib (NSC818433), MRTX-1133 (NSC836407), SN-38 (NSC673596), topotecan (NSC609699), epotoside (NSC141540), doxorubicin (NSC123127), gemcitabine (NSC613327), 5-fluorouracil (NSC19893), paclitaxel (NSC125973), vemurafenib (NSC761431), MSA-2 (NSC828583), SN-011 (NSC837082), adavosertib (NSC754352), prexasertib (NSC758257), carboplatin (NSC241240) and oxaliplatin (NSC266046), were obtained from the National Cancer Institute (NCI) Developmental Therapeutics Program Chemical Repository (21). The FDA-approved anticancer drug set is available from the Developmental Therapeutics Program at https://dtp.cancer.gov/organization/dscb/obtaining/. […] The stock solutions were prepared in dimethyl sulfoxide (DMSO, Sigma-Aldrich, St. Louis, MO, cat. D2650), except for the platinum compounds which were prepared in saline (Quality Biological, Gaithersburg, MD, cat. 114-055-101), at 800-fold the tested concentration and stored at -70 degrees C prior to their use. All drugs and investigational agents were tested over a range starting from a high concentration at or near the clinical Cmax and decreasing in half-log increments. If the clinical Cmax for an agent had not been determined, the highest concentration tested was 10 microM, except for SN-38, which was tested at a high concentration of 1 microM.
Cell Culture. All cells were maintained in an incubator at 37 degrees C and 5% CO2 with 95% humidity. The PDC lines were cultured according to standard operating procedures established by the NCI PDMR (https://pdmr.cancer.gov). Table 3 of the manuscript, lists the cell lines along with the number of the three cell types plated to form the mct-spheroids and media for tumor cell growth. After thawing, all PDC lines, except 997537-175-T-J1-PDC and 415267-285-R-J2-PDC, were cultured in Matrigel-coated flasks prepared with a working solution of 1X Ham's F-12 nutrient mix, without supplementation (Thermo Fisher Scientific, cat. 11765054), 100 U/mL penicillin-streptomycin (Thermo Fisher Scientific, cat. 15140122), and 2.5% Matrigel (Corning Inc., Corning, NY, cat. 354248) for the first three passages. The two PDC lines 997537-175-T-J1-PDC and 415267-285-R-J2-PDC were cultured on uncoated flasks. The 857933-349-R-J2-PDC line was cultured in 6C/Colon 1B media containing advanced DMEM/F-12 (Thermo Fisher Scientific, cat. 12634028), 10 mM HEPES (Thermo Fisher Scientific, cat. 15630080), 1X GlutaMAX supplement (Thermo Fisher Scientific, cat. 35050061), 0.1 mg/mL primocin (InvivoGen, San Diego, CA, cat. ant-pm-2), 10% defined fetal bovine serum, heat inactivated (HyClone Laboratories Inc., Logan, UT, cat. SH30070.03HI), 50% L-WRN conditioned media (ATCC, cat. CRL-3276), 1.25 mM N-Acetyl-L-cysteine (Sigma-Aldrich, cat. A9165), 10 mM nicotinamide (Sigma-Aldrich, cat. N0636), 1X B-27 supplement (Thermo Fisher Scientific, cat. 17504044), 1X N-2 supplement (Thermo Fisher Scientific, cat. […]

Several values for one entry are separate records, joined by “and”; a condition that tells them apart may be missing. Equal values may be shown once.
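Note: spheroids exposed to drugs for seven days before viability read.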
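Throughout, for viability, T/C: 100% = DMSO vehicle control wells.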

For the compound `CC(=O)O[C@H]1C(=O)[C@@]2(C)[C@H]([C@H](OC(=O)c3ccccc3)[C@]3(O)C[C@H](OC(=O)[C@H](O)[C@@H](NC(=O)c4ccccc4)c4ccccc4)C(C)=C1C3(C)C)[C@]1(OC(C)=O)CO[C@@H]1C[C@@H]2O` + Cc1cccc(N(C)C(=O)C2C(O)CCN2c2nc(C)cc(C(F)(F)F)c2C#N)c1, the IC50 (commonly the concentration needed to halve the response being measured) is, setting by setting: (curve of first compound, second compound 0.0316 µM) < 9.49 nM; (curve of first compound, second compound 0.1 µM) < 9.49 nM; (curve of first compound, second compound 0.316 µM) < 9.49 nM; (curve of first compound, second compound 1 µM) < 9.49 nM; (curve of first compound, second compound 3.16 µM) < 9.49 nM; (curve of first compound, second compound 10 µM) < 9.49 nM. Also, the viability, T/C – broadly, the ratio of treated to control – is, setting by setting: (second compound 0.0316 µM, first compound 0.00949 µM) 35.9%; (second compound 0.0316 µM, first compound 0.03 µM) 21.7%; (second compound 0.0316 µM, first compound 0.0949 µM) 16.1%; (second compound 0.0316 µM, first compound 0.3 µM) 15.5%; (second compound 0.0316 µM, first compound 0.949 µM) 19.6%; (second compound 0.0316 µM, first compound 3 µM) 18.6%. Besides, the viability, T/C is 38.3% (second compound 0.1 µM, first compound 0.00949 µM); 20.5% (second compound 0.1 µM, first compound 0.03 µM); 13.9% (second compound 0.1 µM, first compound 0.0949 µM); 13.2% (second compound 0.1 µM, first compound 0.3 µM); 19.7% (second compound 0.1 µM, first compound 0.949 µM); 15.4% (second compound 0.1 µM, first compound 3 µM). The viability, T/C is, setting by setting: (second compound 0.316 µM, first compound 0.00949 µM) 35.3%; (second compound 0.316 µM, first compound 0.03 µM) 21.7%; (second compound 0.316 µM, first compound 0.0949 µM) 16.7%; (second compound 0.316 µM, first compound 0.3 µM) 19%; (second compound 0.316 µM, first compound 0.949 µM) 21.5%; (second compound 0.316 µM, first compound 3 µM) 16%. Also, the viability, T/C is, setting by setting: (second compound 1 µM, first compound 0.00949 µM) 34.2%; (second compound 1 µM, first compound 0.03 µM) 19.4%; (second compound 1 µM, first compound 0.0949 µM) 15.6%; (second compound 1 µM, first compound 0.3 µM) 16.9%; (second compound 1 µM, first compound 0.949 µM) 18.6%; (second compound 1 µM, first compound 3 µM) 16%. The viability, T/C by setting is: (second compound 3.16 µM, first compound 0.00949 µM) 38.3%; (second compound 3.16 µM, first compound 0.03 µM) 17.8%; (second compound 3.16 µM, first compound 0.0949 µM) 15.4%; (second compound 3.16 µM, first compound 0.3 µM) 16%; (second compound 3.16 µM, first compound 0.949 µM) 19.2%; (second compound 3.16 µM, first compound 3 µM) 15.8%. Further, the viability, T/C reads like this: (second compound 10 µM, first compound 0.00949 µM) 31.6%; (second compound 10 µM, first compound 0.03 µM) 17.8%; (second compound 10 µM, first compound 0.0949 µM) 12.4%; (second compound 10 µM, first compound 0.3 µM) 14.9%; (second compound 10 µM, first compound 0.949 µM) 18.1%; (second compound 10 µM, first compound 3 µM) 14.4%.
As to `Nc1ccc(C#CCN(C(=O)Cc2ncc(C(F)(F)F)cc2C(F)(F)F)c2ccc(F)cc2)nn1`, the 50% inhibitory concentration (IC50) (compound alone, run of 12/05/2023) was > 10000 nM.
As to `COc1ccc([C@@H](O)c2cc(-c3ncnc4cc(N5CCOCC5)ccc34)c(F)cc2Cl)nn1`, the viability, T/C was 92.9% and 78.8% and 78% (compound 0.0316 µM); 81.3% and 85.4% and 74.1% (compound 0.1 µM); 104% and 91.9% and 83.3% (compound 0.316 µM); 67.2% and 91.9% and 95.6% (compound 1 µM); 78% and 69.2% and 62.2% (compound 3.16 µM); 36.1% and 31.2% and 33.4% (compound 10 µM). Further, under “curve of compound”, the IC50 is 6470 nM and 5660 nM and 5150 nM.
With `Cn1ncnc1[C@H]1c2n[nH]c(=O)c3cc(F)cc(c23)N[C@@H]1c1ccc(F)cc1`, the viability, T/C is 87.9% and 80.8% and 110% (compound 0.000316 µM); 83.2% and 90.4% and 112% (compound 0.001 µM); 82.5% and 83.7% and 85.8% (compound 0.00316 µM); 93.8% and 99.9% and 105% (compound 0.01 µM); 113% and 94.7% and 116% (compound 0.0316 µM); 99.4% and 96.1% and 76.1% (compound 0.1 µM). For the same compound, the IC50 (curve of compound) was > 100 nM.
Regarding `CC1COCCN1c1cc(C2(O)CC3CCC(C2)O3)c2cnn(-c3ccn[nH]3)c2n1` (stereo unspecified), the viability, T/C is 84.1% and 74.7% and 60.4% (compound 0.0316 µM); 62.5% and 69.8% and 72.1% (compound 0.1 µM); 45.6% and 32.8% and 34.3% (compound 0.316 µM); 24.3% and 23.7% and 22.5% (compound 1 µM); 15% and 14% and 18.6% (compound 3.16 µM); 12% and 10.3% (2×) (compound 10 µM). The IC50 (curve of compound) is 216 nM and 187 nM and 180 nM.
Take `COc1cc(C2c3cc4c(cc3C(OC3OC5COC(C)OC5C(O)C3O)C3COC(=O)C23)OCO4)cc(OC)c1O` (stereo unspecified): the viability, T/C (compound 0.0316 µM) was 108% and 93.2% and 99.1%; the viability, T/C (compound 0.1 µM) was 103% and 85.7% and 106%; the viability, T/C (compound 0.316 µM) was 61.8% and 90.5% and 72.3%; the viability, T/C (compound 1 µM) is 49.7% and 44.2% and 35.8%; the viability, T/C (compound 3.16 µM) was 28.1% and 26.1% and 27.6%; the viability, T/C (compound 10 µM) was 31.2% and 30.3% and 30.4%. Also, the IC50 (curve of compound) is 707 nM and 864 nM and 621 nM.
